Where a SMILES comes first, the peptide text is derived from it. Bridges are numbered along the chain shown (N, C = ends). [ ]: non-standard residue; d: D form. The star is where a group is joined. X1 = CC[C@H](C)CCCCC(=O)*; Dab = NCC[C@H](N)C(=O)O
Test system: mucin from the porcine stomach
Test: PMB binding to mucin by ultracentrifugation in CAMHB with 1% mucin
Format: in vitro ADME
Parameters: Unbound conc.: unit not given here
Protocol: Mucin from the porcine stomach was obtained from Sigma-Aldrich (Merck KGaA, Saint-Quentin Fallavier, France) and solubilized in NaCl 0.9% to obtain a solution at 20% (pH adjusted to 7). The solution was autoclaved at 110°C for 15 minutes.
PMB solutions at concentrations ranging from 0.5 to 10,000 mg/L in CAMHB with 1% mucin were incubated for 1 h at 35°C, then ultracentrifuged at ~290 000 g for 5 h at room temperature (Beckman Optima LE-80K, rotor: Beckman Coulter 70.1 Ti), according to a method previously described ([35]). Unbound PMB concentrations in the supernates were determined by LC-MS/MS (method adapted from a previous publication ([36]) and detailed in Supplemental material) and used to determine the unbound fraction (fu) of PMB. Potential PMB sedimentation ([37]) during experimentation was determined from PMB solutions prepared in mucin-free CAMHB and subjected to the same ultracentrifugation conditions as previously described, and then used to correct for unbound PMB concentrations.
The same procedure was performed with a nonautoclaved mucin solution. Experiments were done in triplicate.
The relationship between fu and PMB total concentrations was modeled according to a sigmoidal Emax function (equation 1):
(1) fu=E0+ Imax × C^ε/IC50ε+ C^ε,
where E0 represents the minimum fu, Imax the maximum increase in fu, IC50 (mg/L) corresponds to PMB total concentration needed to reach 50% of Imax, C (mg/L) to the PMB total concentration, and ε to the Hill coefficient.
Parameter estimation was performed using nonlinear regression with iteratively reweighted least squares (R, version 4.1.3 – Package: robustbase, version 0.99–0). Two sets of parameters were estimated, one for the data generated with autoclaved mucin, another for the data generated without autoclave. The two sets of parameters were compared using ANOVA testing.

[1] = equation 1 fit, all data pooled, value (variance) in Table 1, CAMHB + 1% mucin, ultracentrifugation, LC-MS/MS, triplicate
[2] = equation 1 fit, autoclaved mucin data
[3] = equation 1 fit, non-autoclaved mucin data
[4] = simulated with equation 1, autoclaved mucin parameters, total conc. 0.5, CAMHB + 1% mucin
[5] = simulated with equation 1, autoclaved mucin parameters, total conc. 1, CAMHB + 1% mucin
[6] = simulated with equation 1, autoclaved mucin parameters, total conc. 2, CAMHB + 1% mucin
[7] = simulated with equation 1, autoclaved mucin parameters, total conc. 4, CAMHB + 1% mucin
[8] = simulated with equation 1, autoclaved mucin parameters, total conc. 8, CAMHB + 1% mucin
[9] = simulated with equation 1, autoclaved mucin parameters, total conc. 10, CAMHB + 1% mucin
[10] = simulated with equation 1, autoclaved mucin parameters, total conc. 50, CAMHB + 1% mucin
[11] = simulated with equation 1, autoclaved mucin parameters, total conc. 100, CAMHB + 1% mucin
[12] = simulated with equation 1, autoclaved mucin parameters, total conc. 500, CAMHB + 1% mucin
[13] = simulated with equation 1, autoclaved mucin parameters, total conc. 1000, CAMHB + 1% mucin
[14] = simulated with equation 1, autoclaved mucin parameters, total conc. 5000, CAMHB + 1% mucin
[15] = simulated with equation 1, autoclaved mucin parameters, total conc. 10000, CAMHB + 1% mucin
[16] = simulated with equation 1, non-autoclaved mucin parameters, total conc. 0.5, CAMHB + 1% mucin
[17] = simulated with equation 1, non-autoclaved mucin parameters, total conc. 1, CAMHB + 1% mucin
[18] = simulated with equation 1, non-autoclaved mucin parameters, total conc. 2, CAMHB + 1% mucin
[19] = simulated with equation 1, non-autoclaved mucin parameters, total conc. 4, CAMHB + 1% mucin
[20] = simulated with equation 1, non-autoclaved mucin parameters, total conc. 8, CAMHB + 1% mucin

CC[C@H](C)CCCCC(=O)N[C@@H](CCN)C(=O)N[C@H](C(=O)N[C@@H](CCN)C(=O)N[C@H]1CCNC(=O)[C@H]([C@@H](C)O)NC(=O)[C@H](CCN)NC(=O)[C@H](CCN)NC(=O)[C@H](CC(C)C)NC(=O)[C@@H](Cc2ccccc2)NC(=O)[C@H](CCN)NC1=O)[C@@H](C)O [PMB, polymyxin B] (X1-[Dab]T[Dab][Dab][Dab][dF]L[Dab][Dab]T; lactam 4-C)
PMB bound to mucin (PMB concentrations encountered in clinical practice, up to 10 mg/L, 1% mucin): approximately 95%
PMB unbound fraction (fu), maximum (PMB total concentration of 200 mg/L (b7) or higher than 200 mg/L, CAMHB + 1% mucin, ultracentrifugation, LC-MS/MS): 60%
PMB unbound fraction (fu) (PMB total concentrations up to 20 mg/L, CAMHB + 1% mucin, 1 h 35°C, ultracentrifugation ~290 000 g 5 h, LC-MS/MS, triplicate): 6%
IC50, PMB total concentration needed to reach 50% of the maximum fu [1]: 114.37 (196) mg/L
Imax, maximum PMB fu increase [1]: 0.56 (0.0009)
ε, Hill coefficient of fu vs total concentration [1]: 1.97 (0.252)
IC50 of fu model [2]: 104.01 µg/mL
Imax, maximum fu increase [2]: 0.56
E0, minimum fu (equation 1 fit, autoclaved mucin data, CAMHB + 1% mucin, ultracentrifugation): 0.067
IC50 of fu model [3]: 126.95 µg/mL
Imax, maximum fu increase [3]: 0.57
E0, minimum fu (equation 1 fit, non-autoclaved mucin data, CAMHB + 1% mucin, ultracentrifugation): 0.056
E0, minimum PMB fu value (sigmoidal Emax fit of fu vs PMB total concentration (equation 1), all data pooled, value (variance) in Table 1, CAMHB + 1% mucin, 1 h 35°C, ultracentrifugation ~290 000 g 5 h room temperature, LC-MS/MS, triplicate): 0.061 (0.0004)
Unbound conc. [4]: 0.03
fu (95% CI) [4]: 6.7 (0.1 - 13.2) %
Unbound conc. [5]: 0.07
fu (95% CI) [5]: 6.7 (0.1 - 13.2) %
Unbound conc. [6]: 0.13
fu (95% CI) [6]: 6.7 (0.1 - 13.2) %
Unbound conc. [7]: 0.27
fu (95% CI) [7]: 6.7 (0.3 - 13.2) %
Unbound conc. [8]: 0.55
fu (95% CI) [8]: 6.9 (0.7 - 13.0) %
Unbound conc. [9]: 0.70
fu (95% CI) [9]: 7.0 (1.0 - 13.0) %
Unbound conc. [10]: 7.96
fu (95% CI) [10]: 15.9 (7.7 – 24.2) %
Unbound conc. [11]: 33.4
fu (95% CI) [11]: 33.4 (24.9 – 41.9) %
Unbound conc. [12]: 304
fu (95% CI) [12]: 60.8 (55.0 - 66.6) %
Unbound conc. [13]: 621
fu (95% CI) [13]: 62.1 (57.2 – 67.1) %
Unbound conc. [14]: 3120
fu (95% CI) [14]: 62.5 (57.1 – 67.9) %
Unbound conc. [15]: 6250
fu (95% CI) [15]: 62.5 (57.1 – 68.0) %
Unbound conc. [16]: 0.03
fu (95% CI) [16]: 5.6 (2.1 - 9.1) %
Unbound conc. [17]: 0.06
fu (95% CI) [17]: 5.6 (2.1 - 9.1) %
Unbound conc. [18]: 0.11
fu (95% CI) [18]: 5.6 (2.2 - 9.1) %
Unbound conc. [19]: 0.23
fu (95% CI) [19]: 5.7 (2.3 - 9.1) %
Unbound conc. [20]: 0.48
fu (95% CI) [20]: 5.9 (2.7 - 9.1) %

Source: article PMC12057341, “In vitro pharmacokinetic/pharmacodynamic modeling of the effect of mucin on polymyxin B activity against Acinetobacter baumannii” (Antimicrobial Agents and Chemotherapy, 2025)
